For orientation: IC50 means the concentration that inhibits the measured activity by half. A higher IC50 goes with lower potency.

IC50 data for 1 molecule are collected here from PMC6960228, “Ethoxysanguinarine, a Novel Direct Activator of AMP-Activated Protein Kinase, Induces Autophagy and Exhibits Therapeutic Potential in Breast Cancer Cells” (Frontiers in Pharmacology, 2020).

Molecules are shown by their SMILES.

What all share (assay): MTT cytotoxicity assay
Holding throughout (type): cell-based
For orientation: Tetrazolium dyes change colour on reduction, which living cells bring about.

The subject of one assay is MCF-7. Particulars: Homo sapiens, MCF7, MCF-7, 24 h. The text has this:
(§1) Human BC cell lines MCF-7, MDA-MB-231, DMA-MB-436, SK-BR3, MDA-MB-468, MDA-MB-453, and MDA-MB-435S and non-tumorigenic MCF-10A human mammary epithelial cells were obtained from American Type Culture Collection (ATCC; Manassas, VA, USA). MCF-7, SK-BR3, MDA-MB-231, and MDA-MB-436 cells were maintained in Dulbecco’s modified Eagle’s medium (DMEM; high glucose; Gibco; Thermo Fisher Scientific, Inc., Waltham, MA, USA) supplemented with 10% fetal bovine serum (FBS; HyClone; Logan, UT, USA) and antibiotics and incubated in a humidified atmosphere with 5% CO2 at 37°C. MDA-MB-468, MDA-MB-453, and MDA-MB-435S cells were maintained in Leibovitz’s L-15 (Gibco) supplemented with 10% FBS and antibiotics and incubated in a humidified atmosphere without CO2 at 37°C. MCF-10A cells were maintained in DMEM/F12 medium containing 5% horse serum (HS), insulin ([…]), epidermal growth factor (EGF, 20 ng/mL), choleratoxin ([…]), hydrocortisone ([…]), penicillin (50 U/mL), and streptomycin (50 U/mL), and incubated in a humidified atmosphere with CO2 at 37°C.
(§2) Cells were seeded into 96-well plate and pre-cultured for 24 h, then treated with Eth for 24. Cell cytotoxicity was determined by MTT assay. The absorbance was measured at 490 nm by automated microplated reader (BioTek Instruments, Inc., Winooski, VT, USA), and the cell death rate was calculated as followed: inhibition rate (%) = (average A490 of the control group − average A490 of the experimental group)/(average A490 of the control group − average A490 of the blank group) × 100%. Cell viability was estimated by trypan blue dye exclusion.

For the next assay, the system named is MDA-MB-435S. Particulars: Homo sapiens, 24 h, means ± SD of quadruplicate determinations.
Description: as §1, §2

The test system of a further assay is MDA-MB-436. Particulars: Homo sapiens, MDA-MB-436, 24 h.
Description: as §1, §2

A further assay deals with MDA-MB-231. Particulars: Homo sapiens, MDA-MB-231, 24 h.
Description: as §1, §2

Another assay concerns SK-BR3. Particulars: Homo sapiens, SK-BR-3, SK-BR3, 24 h, means ± SD of quadruplicate determinations.
Description: as §1, §2

A further assay deals with MDA-MB-468. Particulars: Homo sapiens, MDA-MB-468, 24 h, means ± SD of quadruplicate determinations.
Description: as §1, §2

Consider `CCOC1c2c(ccc3c2OCO3)-c2ccc3cc4c(cc3c2N1C)OCO4` (stereo not drawn) [Eth, Ethoxysanguinarine], for which the 50% inhibitory concentration (IC50) in the assay on MCF-7 turned out to be 3.29 ± 1.5 µM; in the assay with MDA-MB-435S it was 4.58 ± 0.77 µM; in the assay on MDA-MB-436, 2.63 ± 0.65 µM; with MDA-MB-231 it was 3.75 ± 0.94 µM; in the assay on SK-BR3, 2.79 ± 0.39 µM; in the assay on MDA-MB-468 it was 6.67 ± 1.7 µM.
